From patent publication EP2064211B1, “IMIDAZO[1,2-A]PYRIDINE HYDROXYMATE COMPOUNDS THAT ARE INHIBITORS OF HISTONE DEACETYLASE” (MEI Pharma, Inc., priority 2006, dated 2008)
≈ marks a conversion by molar mass, not a printed value.

Assays:
Colo205 cells = assay: Cell-based proliferation assay for determination of GI50 values (CyQUANT); parameters: species or system Human; settings: Homo sapiens, COLO 205, compound treatment 96 h, concentration for 50% inhibition of cell growth, read-out: Gl50 (Colo205)
Description: Human cancer cell lines (e.g. Colo205) were obtained from ATCC. Colo205 cells were cultivated in RPMI 1640 containing 2 mM L-Glutamine, 5% FBS, 1.0 mM Na Pyruvate. Colo205 cells were seeded in 96-wells plate at 5000 cells per well. The plates were incubated at 37°C, 5% CO2, for 24 h. Cells were treated with compounds at various concentrations for 96 h. Cell growth was then monitored using CyQUANT® cell proliferation assay (Invitrogen Pte Ltd). Dose response curves were plotted to determine Gl50 values for the compounds using XL-fit (ID Business Solution, Emeryville, CA). Gl50 is defined as the concentration of compound required for 50% inhibition of cell growth.

HDAC1 enzyme = target: T1, HDAC1 enzyme (Homo sapiens, UniProt Q13547); assay: In vitro HDAC assay for determination of IC50 values (BIOMOL fluorescent-based HDAC activity assay); format: biochemical; settings: recombinant GST-HDAC1, 500 uM Flur de lys substrate, room temperature 2 h; read-out: IC50 (HDAC 1)
T1 construct: Amplification of human HDAC1 coding region from this cDNA library was cloned separately into the baculovirus expression pDEST20 vector; made in house; host or cells: SF9 insect cells (baculovirus, pDEST20 vector)
T1 sequence (Q13547 whole entry): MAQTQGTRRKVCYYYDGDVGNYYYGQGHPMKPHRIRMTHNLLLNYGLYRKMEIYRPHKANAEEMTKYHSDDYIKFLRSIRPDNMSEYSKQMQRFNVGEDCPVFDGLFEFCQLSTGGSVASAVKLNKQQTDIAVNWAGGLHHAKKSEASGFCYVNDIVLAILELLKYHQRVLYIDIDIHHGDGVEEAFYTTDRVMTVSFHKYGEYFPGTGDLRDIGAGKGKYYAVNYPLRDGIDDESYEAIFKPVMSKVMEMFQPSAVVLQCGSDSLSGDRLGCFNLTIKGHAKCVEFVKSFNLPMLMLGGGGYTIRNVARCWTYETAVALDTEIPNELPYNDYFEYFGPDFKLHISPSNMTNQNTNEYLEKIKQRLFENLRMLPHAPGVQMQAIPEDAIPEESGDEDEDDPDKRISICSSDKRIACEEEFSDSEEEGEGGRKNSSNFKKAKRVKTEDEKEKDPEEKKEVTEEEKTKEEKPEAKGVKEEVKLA
Description: Human cDNA library was prepared using cultured SW620 cells. Amplification of human HDAC1 coding region from this cDNA library was cloned separately into the baculovirus expression pDEST20 vector (GATEWAY Cloning Technology, Invitrogen Pte Ltd). The pDEST20-HDAC1 construct was confirmed by DNA sequencing. Recombinant baculovirus was prepared using the Bac-To-Bac method following the manufacturer's instruction (Invitrogen Pte Ltd).
Expression of GST-HDAC1 was done by infecting SF9 cells (Invitrogen Pte Ltd) with pDEST20-HDAC1 baculovirus at MOI=1 for 48 h. Soluble cell lysate was incubated with pre-equilibrated Glutathione Sepharose 4B beads (Amersham) at 4°C for 2 h. The beads were washed with PBS buffer for 3 times. The GST-HDAC1 protein was eluted by elution buffer containing 50 mM Tris, pH8.0, 150mM NaCl, 1% Triton X-100 and 10mM or 20mM reduced Glutathione. The purified GST-HDAC1 protein was dialyzed with HDAC storage buffer containing 10mM Tris, pH7.5, 100mM NaCl and 3mM MgCl2. 20% Glycerol was added to purified GST-HDAC1 protein before storage at -80°C.
The assay has been carried out in 96 well format and the BIOMOL fluorescent-based HDAC activity assay has been applied. The reaction composed of assay buffer, containing 25 mM Tris pH 7.5, 137 mM NaCl, 2.7 mM KCl, 1 mM MgCl2, 1 mg/ml BSA, tested compounds, an appropriate concentration of HDAC1 enzyme, 500 uM Flur de lys generic substrate for HDAC1 enzyme and subsequently was incubated at room temperature for 2 h. Flur de lys Developer was added and the reaction was incubated for 10 min. Briefly, deacetylation of the substrate sensitizes it to the developer, which then generates a fluorophore. The fluorophore is excited with 360 nm light and the emitted light (460 nm) is detected on a fluorometric plate reader (Tecan Ultra Microplate detection system, Tecan Group Ltd.).
The analytical software, Prism 4.0 (GraphPad Software Inc) has been used to generate IC50 from a series of data. IC50 is defined as the concentration of compound required for 50% inhibition of HDAC enzyme activity.

[1] = Measurement of microsomal stability; format: in vitro ADME; settings: pooled human liver microsomes 1.0 mg/ml, test compound 5 µM, pH 7.4, incubation up to 60 min
Description: Metabolic stability measurements in vitro using liver microsomes aids in the prediction of in vivo hepatic clearance and compound stability towards phase I biotransformation reactions mediated by P450 isozymes.
Pooled human liver microsome (HLM) preparation was purchased from BD Gentest (BD BioSciences). The incubations consisted of test compound (5 µM) or control compound (Verapamil), NADPH-generating system solution A (25 mM NADP^+, 66 mM glucose-6-phosphate, 66 mM MgCl2 in H2O), NADPH-generating system solution B (40 U/ml glucose-6-phosphate dehydrogenase in 5 mM sodium citrate) and 1.0 mg/ml microsomal protein, respectively, in 100 mM potassium phosphate buffer (pH 7.4). Samples are incubated for 0, 5, 15, 30, 45, 60min. Reaction is terminated with ice-cold 80% acetonitrile and 20% DMSO. Samples are subsequently centrifuged at 4°C for 15 min at 2,000 rpm. 100 µL of the supernatant is transferred to the LC-MS plate for analysis. Before quantitative analysis, the compound is tuned in the LC/MS machine to get the optimized MS condition. Liquid chromatography is performed on a Luna C18 column (Phenomenex U.S.A, Torrance, CA) (2x50mm, […]). Percentage (%) remaining of compound (by area) of each time point is calculated with respect to time 0. Plot %remaining against time (min) to obtain the curve and use the Prism software to obtain the T1/2. […]

[2] = High Throughput Solubility Profiling (HTSP), kinetic solubility; format: physicochemical; settings: phosphate buffer with 2.5% DMSO, aqueous buffer, kinetic from dmso stock, phosphate buffer (pH 7), final concentration 250 µM
Description: Determining compound aqueous solubility has become an essential early measurement in the drug discovery process. Poor aqueous solubility can cause problems in many in vitro testing techniques, leading to unreliable results. The standard way to determine the solubility of a compound is to use the shake-flask solubility method. However, this method is inherently low-throughput and labour intensive.
10mM compound stock in DMSO was dissolved in phosphate buffer (pH 7) to give a final concentration of 250µM in 96-well plates in triplicate. The plate was shaken for 1.5 hours at 450 rpm and left to stand for 2 hours to allow the compound to reach its saturation point. The plate was then centrifuged at 2000g for 15 minutes. The supernatant was transferred and mixed with 20µL of DMSO in another 96-well plate. A calibration curve at 100µM and 250µM was prepared from the 10mM stock by dissolving in 60% methanol/phosphate buffer solution. LC/MS was used in the analysis and the area counts were obtained by using the Quantify Method Editor. Using the three point standard curve including zero, the results for solubility were reported. […]

SMILES | IC50 (Colo205 cells) [nM] | IC50 (HDAC1 enzyme) [nM] | half-life at 5 µM [1] [h] | solubility [2] [µM]
CC(C)CCc1nc2cc(C=CC(=O)NO)ccn2c1CNC(C)(C)C [Compound 65, 3-[3-(tert-Butylamino-methyl)-2-(3-methyl-butyl)-imidazo[1,2-a]pyridin-7-yl]-N-hydroxy-acrylamide] | 100 | 20 | > 1 | 
CCCCN(CC)Cc1c(CC)nc2cc(C=CC(=O)NO)ccn12 [Compound 63, 3-{3-[(Butyl-ethyl-amino)-methyl]-2-ethyl-imidazo[1,2-a]pyridin-7-yl}-N-hydroxy-acrylamide] | 180 | 50 | > 1 | 
CCN(CCC(C)(C)C)Cc1c(C)nc2cc(C=CC(=O)NO)ccn12 [Compound 50, 3-(3-{[(3,3-Dimethyl-butyl)-ethyl-amino]-methyl}-2-methyl-imidazo[1,2-a]pyridin-7-yl)-N-hydroxy-acrylamide] | 160 | 50 | 0.75 | 
CCCN(Cc1c(C(C)(C)C)nc2cc(C=CC(=O)NO)ccn12)C(C)C [Compound 32, 3-{2-tert-Butyl-3-[(isopropyl-propyl-amino)-methyl]-imidazo[1,2-a]pyridin-7-yl}-N-hydroxy-acrylamide] | 2500 | 300 |  | 
CCCCN(CC)Cc1c(CCC)nc2cc(C=CC(=O)NO)ccn12 [Compound 57, 3-{3-[(Butyl-ethyl-amino)-methyl]-2-propyl-imidazo[1,2-a]pyridin-7-yl}-N-hydroxy-acrylamide] | 160 | 40 |  | 
CCCCCN(CC)Cc1c(C(C)(C)C)nc2cc(C=CC(=O)NO)ccn12 [Compound 18, 3-{2-tert-Butyl-3-[(ethyl-pentyl-amino)-methyl]-imidazo[1,2-a]pyridin-7-yl}-N-hydroxy-acrylamide] | 750 | 130 |  | 
CCCc1nc2cc(C=CC(=O)NO)ccn2c1CNC(C)(C)C [Compound 48, 3-[3-(tert-Butylamino-methyl)-2-propyl-imidazo[1,2-a]pyridin-7-yl]-N-hydroxy-acrylamide] | 180 | 40 | > 1 | 168 (≈ 55.5 µg/mL)

The remaining molecules from weak to strong by IC50 (Colo205 cells), led by results:

IC50 (Colo205 cells) [nM] | IC50 (HDAC1 enzyme) [nM] | half-life at 5 µM [1] [h] | solubility [2] [µM] | SMILES
600 | 90 |  |  | CCN(CCCSC)Cc1c(C(C)(C)C)nc2cc(C=CC(=O)NO)ccn12 [Compound 26, 3-(2-tert-Butyl-3-{[ethyl-(3-methylsulfanyl-propyl)-amino]-methyl}-imidazo[1,2-a]pyridin-7-yl)-N-hydroxy-acrylamide]
180 | 30 | 0.983 |  | CCCCN(CC)Cc1c(C)nc2cc(C=CC(=O)NO)ccn12 [Compound 29, 3-{3-[(Butyl-ethyl-amino)-methyl]-2-methyl-imidazo[1,2-a]pyridin-7-yl}-N-hydroxy-acrylamide]
140 | 20 | > 1 | 200 (≈ 68.9 µg/mL) | CCCCc1nc2cc(C=CC(=O)NO)ccn2c1CNC(C)(C)C [Compound 5, 3-[2-Butyl-3-(tert-butylamino-methyl)-imidazo[1,2-a]pyridin-7-yl]-N-hydroxy-acrylamide]
110 |  | > 1 | > 250 | CCN(CCC(C)C)Cc1c(C)nc2cc(C=CC(=O)NO)ccn12 [Compound 49, 3-(3-{[Ethyl-(3-methyl-butyl)-amino]-methyl}-2-methyl-imidazo[1,2-a]pyridin-7-yl)-N-hydroxy-acrylamide]
100 | 20 | > 1 |  | CCc1nc2cc(C=CC(=O)NO)ccn2c1CN(CC)CCC(C)C [Compound 64, 3-(2-Ethyl-3-{[ethyl-(3-methyl-butyl)-amino]-methyl}-imidazo[1,2-a]pyridin-7-yl)-N-hydroxy-acrylamide]
